These results are taken from patent US20110319660A1 (Galactic SA, priority 2008, published 2011).

Series [1] can be described thus: Secondary nucleation temperature Tn of lactic acid solution. It is filed as physicochemical. On the procedure:
We measured the secondary nucleation temperature for more reproducibility. For this purpose, a few large crystals (three or four) are introduced into the slightly subcooled solution (26° C.). These crystals are used to initiate nucleation. To obtain nucleation, the solution is cooled according to a cooling gradient of 10° C./hr. The nucleation temperature is measured when the first crystal (excluding crystals in solution) appears.

A short description of series [2]: Thermal stability test: colour after heating at reflux at 200° C. for two hours. As to conditions: 90% solution of crystals.
Method: The analyses conducted on the 90% crystal solutions are a measurement of the colour at ambient temperature (APHA scale in Hazen units) and a thermal stability test consisting of measuring the colour (APHA scale in Hazen units) of the substance after heating at reflux at a temperature of 200° C. for two hours.
Series [3] in a line: Specific surface area by mass of crystals by optical microscopy. It is filed as physicochemical. The source says: The specific surface area by mass (SSM) of crystals is the area developed by the crystals per unit of weight. The specific surface area by mass (SSM) is used to compare the dimensional characteristics of crystals of a suspension or a powder with those of another suspension or powder. This specific surface area can be measured by means of optical imaging on the basis of a volume (Vm) and the mean surface area (Sm) of hundreds of crystals (by measuring the length of the face thereof) and the density of the crystals (Dc):
The crystal size measurements were made using an optical microscope (Askania RME5) equipped with a digital camera (Nikon Coolpix 4500) with crystal measurement software supplied by Leica. For both test conditions, the length (L1) and thickness (L2) of 200 crystals were measured.
The specific surface area by mass of the crystals obtained at low supersaturation is 0.03 m^2/g whereas that of the crystals at high supersaturation is 0.06 m^2/g. This is calculated by taking the surface area and the volume of a parallelepiped having a length L1 and width and thickness L2.
The specific surface area by mass of the crystals is also estimated by measuring the length and thickness of 200 crystals of each sample according to the protocol described in example 1.

As for `CC(O)C(=O)O` (centres unmarked) [lactic acid, hydroxy-2-propanoic acid], the secondary nucleation temperature in series [1] (Example 1: lactic acid concentration 92%, colour 2000 Hazen, relative monomer content 96%) came to 18 °C. The Tn in series [1] (Example 2: lactic acid concentration 90%, colour 1800 Hazen, relative monomer content 94%) was 18 °C; in series [1] (Example 4: lactic acid concentration 95.4%, colour 1900 Hazen, relative monomer content 91%), 33 °C; in series [1] (total acidity 89%, free acidity 78.7%, relative monomer content 77%), 8 °C; in series [1] (total acidity 89%, free acidity 84%, relative monomer content 89%), 15 °C; in series [1] (total acidity 89%, free acidity 87.6%, relative monomer content 97.5%) it was 22 °C; in series [1] (total acidity 89%, free acidity 88.2%, relative monomer content 99%), 23 °C. Besides, the entries for the “Colour after heating (200° C., 2 hrs), after drying” value in series [2] (Example 2: supersaturation 14%), in series [2] (Example 2: supersaturation 50%) and in series [2] (Example 2: supersaturation 86%) were 500 Hazen, 900 Hazen and 1328 Hazen, respectively. The “Colour after heating (200° C., 2 hrs), after passage on Noritt ROX activated carbon (20 g/l)” value in series [2] (Example 2: supersaturation 14%) is given as 25 Hazen; in series [2] (Example 2: supersaturation 50%) it was 45 Hazen. Also, the “Colour after heating (200° C., 2 hrs), after washing (25% of a 90% lactic acid solution, 4° C.)” value in series [2] (Example 2: supersaturation 14%) is reported as 49 Hazen; in series [2] (Example 2: supersaturation 50%), 88 Hazen; in series [2] (Example 2: supersaturation 86%), 480 Hazen. In addition, the “Specific surface area by mass” value turned out to be 0.06 m^2/g in series [3] (Example 1: crystals obtained at high supersaturation Ds^c=87.5%); 0.03 m^2/g in series [3] (Example 1: crystals obtained at low supersaturation Ds^c=12.5%); 0.03 m^2/g in series [3] (Example 2: crystals, supersaturation 14%); 0.045 m^2/g in series [3] (Example 2: crystals, supersaturation 50%); 0.07 m^2/g in series [3] (Example 2: crystals, supersaturation 86%).
